Assay results as given in patent US10787434B2, “Benzopiperdine derivatives and their use in the treatment of cancer and hemoglobinopathies” (CTXT PTY LTD, priority 2016, dated 2020).
Structures can show the parent of a compound that is named as a salt.

What was measured:
[1] = target: Full-length PRMT5 enzyme co-expressed with His6-MEP50 (Homo sapiens (Human), UniProt O14744); assay: PRMT5 Biochemical Assay; conditions: Transcreener EPIGEN methyltransferase assay, histone H4 derived peptide substrate, 4 hours at 37 degree Celsius
Protocol: Compounds of the invention may be tested for in vitro activity in the following assay:
A histone H4 derived peptide is used as substrate (amino acid sequence: […]NH2). Full-length PRMT5 enzyme (NCBI Reference sequence NP_006100.2) was co-expressed with His6-MEP50 in insect cells and purified via Nickel immobilized metal affinity and gel filtration chromatography (“the enzyme”).
The 6 μL reactions are run in Greiner brand black 384-well low volume assay plates. All reactions contained assay buffer (phosphate buffered saline, 0.01% (v/v) Tween-20, 0.01% (w/v) albumin from chicken egg white, 1 mM Dithiothreitol, 1 μM peptide substrate, 1 μM S-Adenosyl methionine, and 15 ng/reaction enzyme, with the enzyme being omitted from negative control reactions. Compounds were added in a volume of 100 nL from dilution series prepared in DMSO, positive and negative control reactions receiving the same volume DMSO without compound. The plates were sealed with adhesive seals and incubated for 4 hours at 37 degree Celsius. Reaction progress was measured using the Transcreener™ EPIGEN methyltransferase assay (BellBrook Labs, Madison, Wis.) as recommended by the manufacturer. To each reaction 2 μL detection mix were added, containing coupling enzymes, fluorescence polarisation tracer, and AMP antibody. Plates were incubated for 90 minutes before being read on a PerkinElmer EnVision™ plate reader in fluorescence polarisation mode. IC50 values were obtained from the raw readings by calculating percent inhibition (%1) for each reaction relative to controls on the same plate (% I=(I−CN)/(CP−CN) where CN/CP are the averages of the negative/positive reactions, respectively), then fitting the %1 data vs. compound concentration [I] to % I=(A+((B−A)/(1+((C/[I])^D)))) where A is the lower asymptote, B is the upper asymptote, C is the IC50 value, and D is the slope.

[2] = tested on: symmetrical dimethylation of arginine (Di-Methyl Histone H4 Arginine 3) in cell line TE11; assay: PRMT5 Biomarker Assay; format: cell-based; conditions: Homo sapiens, TE-11; TE11 cells, 72 hours incubation, mean Alexa647-related intensity per cell
Protocol: PRMT5 Biomarker Assay Compounds of the invention may be tested for potency to inhibit symmetrical dimethylation of arginine in the following assay: The cell line TE11 was seeded at a density of 6,000 cells per well in 96 well optical quality tissue culture plates in DME medium and 10% foetal bovine serum, and allowed to adhere for 5 hours under standard culture conditions (37 degree Celsius, 5% CO2). Compound dilutions prepared in DMSO were added to the medium, with negative control wells reserved for treatment with DMSO only and maximum inhibition controls receiving a potent PRMT5 inhibitor compound at 1 μM concentration. After incubation for 72 hours, the cells were fixed with 3.7% formaldehyde in PBS for 30 minutes at room temperature, washed with phosphate buffer saline and blocked with Odyssey blocking buffer (LI-COR, Lincoln, Nebr.). Rabbit anti-Di-Methyl Histone H4 Arginine 3 specific antibody (Epigentek) in Odyssey blocking buffer was added and incubated for 14 hours at 4 degree Celsius. After washing, anti-rabbit secondary antibody labelled with Alexa647 dye (LifeTechnologies) and Hoechst 33342 (1 μg/mL, SigmaAldrich) were added for 1 hour incubation. Plates were washed and read on a PerkinElmer Envision 2103 in fluorescence intensity scanning mode (24 scans across the well area). The plates were imaged on a PerkinElmer Phenix high content imaging platform. Using a Columbus image analysis pipeline, individual nuclei were located by Hoechst 33342 stain and the methylation level was calculated from the Alexa647-related intensity in the same area. IC50 values were obtained from the mean Alexa647-related intensity per cell by calculating percent inhibition (%1) for each well relative to controls on the same plate (% l=(1-CN)/(CP−CN) where CN/CP are the averages of the negative/maximum inhibition controls, respectively), then fitting the %1 data vs. compound concentration [I] to % I=(A+((B−A)/(1+((C/[I])^D)))) where A is the lower asymptote, B is the upper asymptote, C is the IC50 value, and D is the slope.

Full-length PRMT5 enzyme co-expressed with His6-MEP50, sequence (O14744 whole entry): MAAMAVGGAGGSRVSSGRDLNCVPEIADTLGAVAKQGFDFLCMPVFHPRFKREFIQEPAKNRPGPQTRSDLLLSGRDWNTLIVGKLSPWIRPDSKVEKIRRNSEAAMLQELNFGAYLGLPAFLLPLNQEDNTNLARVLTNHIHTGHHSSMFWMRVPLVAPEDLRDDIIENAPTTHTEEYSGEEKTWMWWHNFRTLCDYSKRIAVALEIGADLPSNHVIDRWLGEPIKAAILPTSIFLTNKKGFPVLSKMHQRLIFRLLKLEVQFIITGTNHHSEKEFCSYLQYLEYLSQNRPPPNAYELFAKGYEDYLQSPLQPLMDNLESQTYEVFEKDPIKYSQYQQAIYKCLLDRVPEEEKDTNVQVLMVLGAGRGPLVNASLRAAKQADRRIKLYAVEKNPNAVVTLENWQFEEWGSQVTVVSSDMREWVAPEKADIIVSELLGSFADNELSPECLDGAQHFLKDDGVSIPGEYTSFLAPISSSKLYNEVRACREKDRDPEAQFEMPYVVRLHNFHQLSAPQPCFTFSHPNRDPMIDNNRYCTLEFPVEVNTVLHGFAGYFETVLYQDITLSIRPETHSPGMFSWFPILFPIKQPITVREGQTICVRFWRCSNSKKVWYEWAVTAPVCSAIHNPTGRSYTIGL
Full-length PRMT5 enzyme co-expressed with His6-MEP50, sequence (Q9BQA1 whole entry partner): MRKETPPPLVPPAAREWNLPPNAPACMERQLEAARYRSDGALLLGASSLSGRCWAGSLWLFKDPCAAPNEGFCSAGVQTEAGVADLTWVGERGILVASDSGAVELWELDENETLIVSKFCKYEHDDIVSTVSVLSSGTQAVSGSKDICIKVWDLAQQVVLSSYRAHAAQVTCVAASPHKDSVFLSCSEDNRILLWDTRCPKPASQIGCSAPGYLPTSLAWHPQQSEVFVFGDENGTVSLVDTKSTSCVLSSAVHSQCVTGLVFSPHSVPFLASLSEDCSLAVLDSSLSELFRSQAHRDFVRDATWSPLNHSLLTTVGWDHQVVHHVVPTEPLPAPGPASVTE

Structure (SMILES) | IC50 [1] | IC50 [2]
CCOc1nc(N2CCN(C(=O)OC)CC2)ccc1C(=O)NC[C@@H](O)[C@@H]1Cc2ccccc2CN1 [Example 1, Methyl 4-(6-ethoxy-5-(((R)-2-hydroxy-2-((S)-1,2,3,4-tetrahydroisoquinolin-3-yl)ethyl)carbamoyl)pyridin-2-yl)piperazine-1-carboxylate dihydrochloride] | 37 nM | 0.2 nM
CCOc1nc(N2CCC(O)CC2)ccc1C(=O)NC[C@@H](O)[C@@H]1Cc2ccccc2CN1 [Example 2, 2-Ethoxy-N-((R)-2-hydroxy-2-((S)-1,2,3,4-tetrahydroisoquinolin-3-yl)ethyl)-6-(4-hydroxypiperidin-1-yl)nicotinamide dihydrochloride] | 102 nM | 23.3 nM
CCOc1nc(N2CCCOCC2)ccc1C(=O)NC[C@@H](O)[C@@H]1Cc2ccccc2CN1 [Example 3, 2-Ethoxy-N-((R)-2-hydroxy-2-((S)-1,2,3,4-tetrahydroisoquinolin-3-yl)ethyl)-6-(1,4-oxazepan-4-yl)nicotinamide dihydrochloride] | 70 nM | 5.6 nM
CCOc1nc(N2CCN(C(C)=O)CC2)ccc1C(=O)NC[C@@H](O)[C@@H]1Cc2ccccc2CN1 [Example 4, 6-(4-Acetylpiperazin-1-yl)-2-ethoxy-N-((R)-2-hydroxy-2-((S)-1,2,3,4-tetrahydroisoquinolin-3-yl)ethyl)nicotinamide dihydrochloride] | 26 nM | 1.3 nM
CCOc1nc(N2CCOCC2)ccc1C(=O)NC[C@@H](O)[C@@H]1Cc2ccccc2CN1 [Example 9, 2-Ethoxy-N—((R)-2-hydroxy-2-((S)-1,2,3,4-tetrahydroisoquinolin-3-yl)ethyl)-6-morpholinonicotinamide] | 251 nM | 31.5 nM

Now from value to molecule:

IC50 [1] | IC50 [2] | Structure (SMILES)
26 nM | 6 nM | CC(=O)N1CCC(Oc2nccc(C(=O)NC[C@@H](O)[C@@H]3Cc4ccccc4CN3)c2Cl)CC1 [Example 5, 2-((1-Acetylpiperidin-4-yl)oxy)-3-chloro-N-((R)-2-hydroxy-2-((S)-1,2,3,4-tetrahydroisoquinolin-3-yl)ethyl)isonicotinamide dihydrochloride]
202 nM | 75.4 nM | CCOc1cnc(CC2CCN(C(C)=O)CC2)cc1C(=O)NC[C@@H](O)[C@@H]1Cc2ccccc2CN1 [Example 6, 2-((1-acetylpiperidin-4-yl)methyl)-5-ethoxy-N-((R)-2-hydroxy-2-((S)-1,2,3,4-tetrahydroisoquinolin-3-yl)ethyl)isonicotinamide dihydrochloride]
135 nM | 16.5 nM | CCOc1nc(OC2CCN(C(C)=O)CC2)ccc1C(=O)NC[C@@H](O)[C@@H]1Cc2ccccc2CN1 [Example 7, 6-((1-acetylpiperidin-4-yl)oxy)-2-ethoxy-N-((R)-2-hydroxy-2-((S)-1,2,3,4-tetrahydroisoquinolin-3-yl)ethyl)nicotinamide hydrochloride salt]
135 nM | 112 nM | CCOc1c(C(=O)NC[C@@H](O)[C@@H]2Cc3ccccc3CN2)ccnc1NC1CCN(C(C)=O)CC1 [Example 8, 2-((1-Acetylpiperidin-4-yl)amino)-3-ethoxy-N—((R)-2-hydroxy-2-((S)-1,2,3,4-tetrahydroisoquinolin-3-yl)ethyl)isonicotinamide Dihydrochloride Salt]
